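Results reflect a 48-hour exposure of cells in 96-well plates to compound at five concentrations. GI50 is the concentration that inhibits growth by half. At the TGI there is no net growth.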
Columns and labels:
Assay in all cases: NCI anticancer screen, dose series, 48 h
786-0 renal = test system: 786-0 renal
A498 renal = test system: A498 renal
A549 NSCLC = test system: A549 NSCLC
BT-549 breast = test system: BT-549 breast
CCRF-CEM leukemia = test system: CCRF-CEM leukemia
COLO 205 colon = test system: COLO 205 colon
DU-145 prostate = test system: DU-145 prostate
HCT-116 colon = test system: HCT-116 colon
HCT-15 colon = test system: HCT-15 colon
HOP-92 NSCLC = test system: HOP-92 NSCLC
HS 578T breast = test system: HS 578T breast
HT29 colon = test system: HT29 colon
K-562 leukemia = test system: K-562 leukemia
KM12 colon = test system: KM12 colon
LOX IMVI melanoma = test system: LOX IMVI melanoma
MALME-3M melanoma = test system: MALME-3M melanoma
MCF7 breast = test system: MCF7 breast
MDA-MB-435 = test system: MDA-MB-435
MOLT-4 leukemia = test system: MOLT-4 leukemia
NCI-H226 lung = test system: NCI-H226 lung
NCI-H460 lung = test system: NCI-H460 lung
OVCAR-4 ovarian = test system: OVCAR-4 ovarian
OVCAR-8 ovarian = test system: OVCAR-8 ovarian
RPMI-8226 leukemia = test system: RPMI-8226 leukemia
RXF 393 renal = test system: RXF 393 renal
SF-268 CNS = test system: SF-268 CNS
SK-MEL-2 melanoma = test system: SK-MEL-2 melanoma
SK-MEL-5 melanoma = test system: SK-MEL-5 melanoma
SN12C renal = test system: SN12C renal
SNB-19 CNS = test system: SNB-19 CNS
SR leukemia = test system: SR leukemia
SW-620 colon = test system: SW-620 colon
TK-10 renal = test system: TK-10 renal
UACC-257 melanoma = test system: UACC-257 melanoma
UACC-62 melanoma = test system: UACC-62 melanoma
UO-31 renal = test system: UO-31 renal
ACHN renal = test system: ACHN renal
CAKI-1 renal = test system: CAKI-1 renal
MDA-MB-231 breast = test system: MDA-MB-231 breast
OVCAR-3 ovarian = test system: OVCAR-3 ovarian
OVCAR-5 ovarian = test system: OVCAR-5 ovarian
PC-3 prostate = test system: PC-3 prostate
SF-295 CNS = test system: SF-295 CNS
SF-539 CNS = test system: SF-539 CNS
SK-MEL-28 melanoma = test system: SK-MEL-28 melanoma
SK-OV-3 ovarian = test system: SK-OV-3 ovarian
SNB-75 CNS = test system: SNB-75 CNS

CCN(CC)CCCNc1c2ccc(Cl)cc2nc2ccc(OC)cc12
GI50 (786-0 renal): 0.0449 µM | TGI (786-0 renal): 2.15 µM | GI50 (A498 renal): 1.51 µM | TGI (A498 renal): 2.86 µM | GI50 (A549 NSCLC): 0.0582 µM | TGI (A549 NSCLC): 5.83 µM | GI50 (BT-549 breast): 1.78 µM | TGI (BT-549 breast): 3.63 µM | GI50 (CCRF-CEM leukemia): 0.0473 µM | TGI (CCRF-CEM leukemia): 3.67 µM | GI50 (COLO 205 colon): 0.0398 µM | TGI (COLO 205 colon): 2.01 µM | GI50 (DU-145 prostate): 0.0476 µM | TGI (DU-145 prostate): 4.08 µM | GI50 (HCT-116 colon): 0.0307 µM | TGI (HCT-116 colon): 1.64 µM | GI50 (HCT-15 colon): 0.0345 µM | TGI (HCT-15 colon): 2.51 µM | GI50 (HOP-92 NSCLC): 1.41 µM | TGI (HOP-92 NSCLC): 3.62 µM | GI50 (HS 578T breast): 2.05 µM | TGI (HS 578T breast): 5.54 µM | GI50 (HT29 colon): 0.033 µM | TGI (HT29 colon): 1.56 µM | GI50 (K-562 leukemia): 0.0308 µM | TGI (K-562 leukemia): 6.08 µM | GI50 (KM12 colon): 0.0541 µM | TGI (KM12 colon): 4.45 µM | GI50 (LOX IMVI melanoma): 0.0342 µM | TGI (LOX IMVI melanoma): 1.93 µM | GI50 (MALME-3M melanoma): 1.6 µM | TGI (MALME-3M melanoma): 3.38 µM | GI50 (MCF7 breast): 0.0377 µM | TGI (MCF7 breast): 3.16 µM | GI50 (MDA-MB-435): 0.0614 µM | TGI (MDA-MB-435): 2.04 µM | GI50 (MOLT-4 leukemia): 0.0338 µM | TGI (MOLT-4 leukemia): 2.91 µM | GI50 (NCI-H226 lung): 1.84 µM | TGI (NCI-H226 lung): 4.88 µM | GI50 (NCI-H460 lung): 0.0326 µM | TGI (NCI-H460 lung): 1.34 µM | GI50 (OVCAR-4 ovarian): 0.0304 µM | TGI (OVCAR-4 ovarian): 2.77 µM | GI50 (OVCAR-8 ovarian): 0.0552 µM | TGI (OVCAR-8 ovarian): 3.44 µM | GI50 (RPMI-8226 leukemia): 0.042 µM | TGI (RPMI-8226 leukemia): 2.83 µM | GI50 (RXF 393 renal): 0.0403 µM | TGI (RXF 393 renal): 2.15 µM | GI50 (SF-268 CNS): 0.0618 µM | TGI (SF-268 CNS): 3.53 µM | GI50 (SK-MEL-2 melanoma): 1.69 µM | TGI (SK-MEL-2 melanoma): 3.31 µM | GI50 (SK-MEL-5 melanoma): 1.64 µM | TGI (SK-MEL-5 melanoma): 3.02 µM | GI50 (SN12C renal): 0.0575 µM | TGI (SN12C renal): 3.69 µM | GI50 (SNB-19 CNS): 0.0587 µM | TGI (SNB-19 CNS): 4.57 µM | GI50 (SR leukemia): 0.029 µM | TGI (SR leukemia): 3.67 µM | GI50 (SW-620 colon): 0.0401 µM | TGI (SW-620 colon): 2.36 µM | GI50 (TK-10 renal): 1.69 µM | TGI (TK-10 renal): 4.83 µM | GI50 (UACC-257 melanoma): 1.83 µM | TGI (UACC-257 melanoma): 3.41 µM | GI50 (UACC-62 melanoma): 1.84 µM | TGI (UACC-62 melanoma): 3.55 µM | GI50 (UO-31 renal): 1.63 µM | TGI (UO-31 renal): 4.83 µM

OC(c1cc(-c2ccc(Cl)cc2)nc2c(Cl)cccc12)C1CCCCN1 (configuration not stated)
GI50 (ACHN renal): 1.53 µM | TGI (ACHN renal): 2.88 µM | GI50 (CAKI-1 renal): 1.16 µM | TGI (CAKI-1 renal): 2.52 µM | GI50 (COLO 205 colon): 1.7 µM | TGI (COLO 205 colon): 3.17 µM | GI50 (DU-145 prostate): 1.71 µM | TGI (DU-145 prostate): 3.1 µM | GI50 (HOP-92 NSCLC): 1.02 µM | TGI (HOP-92 NSCLC): 2.36 µM | GI50 (KM12 colon): 1.85 µM | TGI (KM12 colon): 3.36 µM | GI50 (MDA-MB-231 breast): 1.49 µM | TGI (MDA-MB-231 breast): 3.02 µM | GI50 (NCI-H460 lung): 1.64 µM | TGI (NCI-H460 lung): 3.15 µM | GI50 (OVCAR-3 ovarian): 1.81 µM | TGI (OVCAR-3 ovarian): 3.35 µM | GI50 (OVCAR-5 ovarian): 1.66 µM | TGI (OVCAR-5 ovarian): 3.26 µM | GI50 (OVCAR-8 ovarian): 2.11 µM | TGI (OVCAR-8 ovarian): 4.63 µM | GI50 (PC-3 prostate): 1.46 µM | TGI (PC-3 prostate): 2.91 µM | GI50 (SF-268 CNS): 1.78 µM | TGI (SF-268 CNS): 3.4 µM | GI50 (SF-295 CNS): 1.68 µM | TGI (SF-295 CNS): 3.28 µM | GI50 (SF-539 CNS): 1.7 µM | TGI (SF-539 CNS): 3.15 µM | GI50 (SK-MEL-28 melanoma): 1.76 µM | TGI (SK-MEL-28 melanoma): 3.23 µM | GI50 (SK-OV-3 ovarian): 1.76 µM | TGI (SK-OV-3 ovarian): 3.21 µM | GI50 (SN12C renal): 1.6 µM | TGI (SN12C renal): 3.27 µM | GI50 (SNB-75 CNS): 1.28 µM | TGI (SNB-75 CNS): 2.68 µM | GI50 (UACC-62 melanoma): 1.69 µM | TGI (UACC-62 melanoma): 3.17 µM

From PubChem BioAssay (NCI)
